From US10022374B2, “Certain protein kinase inhibitors” (Shanghai Fochon Pharmaceutical Co., Ltd., priority 2013, dated 2018)

Tests used:
HT-29 cells = assay: Inhibition of cell proliferation (MTS), HT-29 cells; format: cell-based; conditions: Homo sapiens, HT-29, 72 h, HT-29 cells, 5000 cells/well, 72 h, MTS, absorbance 490 nm; read-out: HT29 IC50
Outline: (§1)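 Cells were seeded at 3000/well (A-375, DMEM) or 5000/well (HT-29, RPMI-1640), each with 10% FBS, and allowed to adhere overnight. Proliferation was measured by MTS absorbance at 490 nm after 2 h, and IC50 was derived from the curves.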

A-375 cells = assay: Inhibition of cell proliferation (MTS), A-375 cells; format: cell-based; conditions: Homo sapiens, A-375, 72 h, A-375 cells, 3000 cells/well, 72 h, MTS, absorbance 490 nm; read-out: A375 IC50
Outline: as §1

Row | IC50 (HT-29 cells) [nM] | IC50 (A-375 cells) [nM] | Compound
1 | 31.5 | 19.4 | CC(C)n1nc(-c2cccc(NS(=O)(=O)C3CC3)c2)c2c(c(Nc3ccc(I)cc3F)c(F)c(=O)n2C)c1=O [Example 16, N-(3-(3-fluoro-4-(2-fluoro-4-iodophenylamino)-6-isopropyl-1-methyl-2,5-dioxo-1,2,5,6-tetrahydropyrido[2,3-d]pyridazin-8-yl)phenyl)cyclopropanesulfonamide]
2 | 6.4 | 19.6 | CCS(=O)(=O)Nc1cccc(-c2nn(C(C)C)c(=O)c3c(Nc4ccc(I)cc4F)c(F)c(=O)n(C)c23)c1 [Example 14, N-(3-(3-fluoro-4-(2-fluoro-4-iodophenylamino)-6-isopropyl-1-methyl-2,5-dioxo-1,2,5,6-tetrahydropyrido[2,3-d]pyridazin-8-yl)phenyl)ethanesulfonamide]
3 | 13.7 | 10.6 | CCC(=O)Nc1cccc(-c2nn(C3CC3)c(=O)c3c(Nc4ccc(I)cc4F)c(F)c(=O)n(C)c23)c1 [Example 2, N-(3-(6-cyclopropyl-3-fluoro-4-(2-fluoro-4-iodophenylamino)-1-methyl-2,5-dioxo-1,2,5,6-tetrahydropyrido[2,3-d]pyridazin-8-yl)phenyl)propionamide]
